Several values for one entry are separate records, joined by “and”; a condition that tells them apart may be missing. Equal values may be shown once. Inconclusive results and toxic doses are left out.

The test system of the assay is P388 leukemia ip, CD2F1 mice, survival T/C. As to the kind of experiment: NCI In Vivo Anticancer Drug Screen. Data for tumor model P388 Leukemia (intraperitoneal) in CD2F1 (CDF1) mice. To be noted: endpoint: median survival time, higher = longer survival. The gist of the method:
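Mice carrying the transplanted tumor received test compound or vehicle. Survival was recorded in each group, and the value is the treated-group measurement divided by that of the vehicle-treated control group.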

The mark [1] stands for this setting: dose: 50.0 mg/kg/injection, schedule: Q01DX009 (ip), vehicle: saline with Tween-80.
The mark [2] stands for this setting: dose: 100.0 mg/kg/injection, schedule: Q01DX009 (ip), vehicle: saline with Tween-80.
The mark [3] stands for this setting: dose: 50.0 mg/kg/injection, schedule: Q01DX009 (ip), vehicle: Klucel (hydroxypropylcellulose) (HPC).
Where [4] appears, read: dose: 100.0 mg/kg/injection, schedule: Q01DX009 (ip), vehicle: Klucel (hydroxypropylcellulose) (HPC).
Where [5] appears, read: dose: 200.0 mg/kg/injection, schedule: Q01DX009 (ip), vehicle: Klucel (hydroxypropylcellulose) (HPC).
The mark [6] stands for this setting: dose: 50.0 mg/kg/injection, schedule: Q01DX005 (ip), vehicle: saline with Tween-80.
The mark [7] stands for this setting: dose: 100.0 mg/kg/injection, schedule: Q01DX005 (ip), vehicle: saline with Tween-80.
Setting [8] is: dose: 50.0 mg/kg/injection, schedule: Q01DX005 (ip), vehicle: Klucel (hydroxypropylcellulose) (HPC).
The mark [9] stands for this setting: dose: 100.0 mg/kg/injection, schedule: Q01DX005 (ip), vehicle: Klucel (hydroxypropylcellulose) (HPC).
Setting [10] is: dose: 50.0 mg/kg/injection, schedule: Q01DX009 (ip), vehicle: saline.
Where [11] appears, read: dose: 60.0 mg/kg/injection, schedule: Q01DX005 (ip), vehicle: saline with Tween-80.
Where [12] appears, read: dose: 120.0 mg/kg/injection, schedule: Q01DX005 (ip), vehicle: saline with Tween-80.
[13] abbreviates: dose: 240.0 mg/kg/injection, schedule: Q01DX005 (ip), vehicle: saline with Tween-80.
The mark [14] stands for this setting: dose: 100.0 mg/kg/injection, schedule: Q01DX009 (ip), vehicle: saline.
Setting [15] is: dose: 200.0 mg/kg/injection, schedule: Q01DX009 (ip), vehicle: saline.
Setting [16] is: dose: 25.0 mg/kg/injection, schedule: Q01DX009 (ip), vehicle: saline with Tween-80.

As to `CC[n+]1cccc(C(=O)c2ccccc2)c1`, the T/C (dose: 3.75 mg/kg/injection, schedule: Q01DX005 (ip), vehicle: saline) is 103 % of control; the T/C (dose: 7.5 mg/kg/injection, schedule: Q01DX005 (ip), vehicle: saline) is 97 % of control; the T/C (dose: 15.0 mg/kg/injection, schedule: Q01DX005 (ip), vehicle: saline) is 102 % of control; the T/C (dose: 30.0 mg/kg/injection, schedule: Q01DX005 (ip), vehicle: saline) is 105 % of control.

On to `c1ccc2c(c1)ccc1c[n+]3ccccc3cc12`, for which the T/C is, setting by setting: (dose: 0.25 mg/kg/injection, schedule: Q01DX009 (ip), vehicle: saline) 100 % of control; (dose: 0.5 mg/kg/injection, schedule: Q01DX009 (ip), vehicle: saline) 104 % of control; (dose: 1.0 mg/kg/injection, schedule: Q01DX009 (ip), vehicle: saline) 100 % of control; (dose: 1.25 mg/kg/injection, schedule: Q04DX003 (ip), vehicle: other) 100 % of control; (dose: 2.5 mg/kg/injection, schedule: Q04DX003 (ip), vehicle: other) 107 % of control.

As for `C/C(=C\Cl)COC1CCCCO1` (stereo not given), the T/C reads like this: under setting [1], 122 % of control; under setting [2], 122 % of control.

In the case of `Cc1nn(C(=O)c2ccncc2)c(C)c1N=Nc1ccc(Br)cc1`, the T/C was 109 % of control under setting [3], 110 % of control under setting [4] and 105 % of control under setting [5].

`CC1CC(C)OC(C(C)(C)C)O1` (stereo not given): the T/C runs as follows: (dose: 60.0 mg/kg/injection, schedule: Q01DX005 (ip), vehicle: saline) 107 % of control; (dose: 120.0 mg/kg/injection, schedule: Q01DX005 (ip), vehicle: saline) 109 % of control; (dose: 240.0 mg/kg/injection, schedule: Q01DX005 (ip), vehicle: saline) 107 % of control.

`COc1cc(C)c(OC)c(CC=C(C)CC(=O)C[C@@]2(C)CCC[C@@]2(C)C(=O)CCC(C)(C)O)c1` (mixture of isomers): the T/C runs as follows: (dose: 25.0 mg/kg/injection, schedule: Q01DX005 (ip), vehicle: saline with Tween-80) 93 % of control; under setting [6], 91 % of control; under setting [7], 95 % of control.

As for `CC(=Nc1cc(Cl)ccc1O)C1=C(O)c2ccccc2C1=O`, the T/C (dose: 50.0 mg/kg/injection, schedule: Q04DX002 (ip), vehicle: saline with Tween-80) is 94 % of control; the T/C (dose: 100.0 mg/kg/injection, schedule: Q04DX002 (ip), vehicle: saline with Tween-80) is 97 % of control; the T/C (dose: 200.0 mg/kg/injection, schedule: Q04DX002 (ip), vehicle: saline with Tween-80) is 97 % of control.

In the case of `c1ccc2c(c1)[nH]c1c2nc2ncccn21`, the T/C under setting [8] was 106 % of control and the T/C under setting [9] is 106 % of control.

As to `COC(=O)NC1CC=CCC1I` (stereo not given), the T/C runs as follows: (dose: 12.5 mg/kg/injection, schedule: Q01DX009 (ip), vehicle: saline) 96 % of control; (dose: 25.0 mg/kg/injection, schedule: Q01DX009 (ip), vehicle: saline) 105 % of control; under setting [10], 106 % of control.

With `N#CN1C2C=CC(c3ccccc3)NC21` (stereo not given), the T/C is 100 % of control under setting [1] and 96 % of control under setting [2].

In the case of `CC1CN=C(c2ccc(NC(=O)Nc3ccc(C4=NCC(C)N4)cc3)cc2)N1` (stereo not given), the T/C (dose: 0.4 mg/kg/injection, schedule: Q01DX005 (ip), vehicle: saline with Tween-80) is 106 % of control; the T/C (dose: 0.78 mg/kg/injection, schedule: Q01DX005 (ip), vehicle: saline with Tween-80) was 104 % of control; the T/C (dose: 1.56 mg/kg/injection, schedule: Q01DX005 (ip), vehicle: saline with Tween-80) is 117 % of control and 118 % of control; the T/C (dose: 3.13 mg/kg/injection, schedule: Q01DX005 (ip), vehicle: saline with Tween-80) was 117 % of control; the T/C (dose: 6.25 mg/kg/injection, schedule: Q01DX005 (ip), vehicle: saline with Tween-80) was 110 % of control.

Take `O=C1OC(c2ccc(F)cc2)CC1CN1CCOCC1` (stereo not given): the T/C is 105 % of control under setting [11], 105 % of control under setting [12] and 99 % of control under setting [13].

On to `O=c1c2ccccc2nc(C(F)(F)F)n1CCc1c[nH]c2ccccc12`, for which the T/C was 93 % of control under setting [8]; 92 % of control under setting [9]; 98 % of control (dose: 200.0 mg/kg/injection, schedule: Q01DX005 (ip), vehicle: Klucel (hydroxypropylcellulose) (HPC)).

Turning to `Cc1nn(N)c2[nH]c(Cl)cc(=O)c12`, the T/C is 97 % of control under setting [6]; 109 % of control under setting [7]; 116 % of control (dose: 200.0 mg/kg/injection, schedule: Q01DX005 (ip), vehicle: saline with Tween-80).

Turning to `COc1cc2c(c(OC)c1OC)C(=O)CCC2`, the T/C by setting is: (dose: 25.0 mg/kg/injection, schedule: Q04DX003 (ip), vehicle: Klucel (hydroxypropylcellulose) (HPC)) 100 % of control; (dose: 50.0 mg/kg/injection, schedule: Q04DX003 (ip), vehicle: Klucel (hydroxypropylcellulose) (HPC)) 104 % of control; (dose: 100.0 mg/kg/injection, schedule: Q04DX003 (ip), vehicle: Klucel (hydroxypropylcellulose) (HPC)) 92 % of control and 93 % of control; (dose: 400.0 mg/kg/injection, schedule: Q04DX003 (ip), vehicle: Klucel (hydroxypropylcellulose) (HPC)) 90 % of control.

Turning to `CC1(C)OCC2CCC=C21` (stereo not given), the T/C is, setting by setting: under setting [11], 92 % of control; under setting [12], 99 % of control; under setting [13], 97 % of control.

For the molecule `Cc1oc(C)c(-c2ccccc2)c1C(=O)N1CCN(C)CC1`, the T/C under setting [11] was 98 % of control and the T/C under setting [12] is 98 % of control.

For the molecule `Cc1cnc(Sc2ncccc2[N+](=O)[O-])nc1`, the T/C reads like this: under setting [10], 109 % of control; under setting [14], 109 % of control; under setting [15], 116 % of control.

For `Nc1nc(N)c2c(n1)NCN(OCCOc1ccc(Cl)cc1Cl)C2`, the T/C runs as follows: under setting [11], 105 % of control; under setting [12], 90 % of control.

Consider `C1C[O][Ge]2([O]1)[O]CC[O]2`, for which the T/C by setting is: under setting [10], 108 % of control; under setting [14], 101 % of control; under setting [15], 102 % of control.

As to `CCCCCCCCCCCC(=O)/C=C/c1ccccc1`, the T/C under setting [3] is 102 % of control, the T/C under setting [4] is 93 % of control and the T/C under setting [5] was 94 % of control.

Consider `CCC1CC(C)C(=O)NC1=O` (stereo not given), for which the T/C is 100 % of control (dose: 12.5 mg/kg/injection, schedule: Q04DX003 (ip), vehicle: saline); 100 % of control (dose: 25.0 mg/kg/injection, schedule: Q04DX003 (ip), vehicle: saline); 109 % of control (dose: 50.0 mg/kg/injection, schedule: Q04DX003 (ip), vehicle: saline).

Consider `O=C1NC(=O)C2C1C1C(=O)NC(=O)C21` (stereo not given), for which the T/C is 94 % of control under setting [16], 94 % of control under setting [1] and 103 % of control under setting [2].

Turning to `OC(c1cc(C(F)(F)F)nc2c(Cl)cc(Cl)cc12)C1CCCCN1` (stereo not given), the T/C is 105 % of control under setting [1] and 106 % of control under setting [2].

Consider `CCN(CC)C(=O)c1ccccc1-c1ccccc1C(=O)N(CC)CC`, for which the T/C (dose: 100.0 mg/kg/injection, schedule: Q04DX003 (ip), vehicle: saline) was 101 % of control; the T/C (dose: 200.0 mg/kg/injection, schedule: Q04DX003 (ip), vehicle: saline) was 98 % of control; the T/C (dose: 400.0 mg/kg/injection, schedule: Q04DX003 (ip), vehicle: saline) is 95 % of control.

As for `NC(Cc1ccc(N(CCCl)CCCl)cc1)C(=O)O` (stereo not given), the T/C was 285 % of control and 309 % of control (dose: 3.12 mg/kg/injection, schedule: Q01DX009 (ip), vehicle: Klucel (hydroxypropylcellulose) (HPC)); 99 % of control and 105 % of control and 117 % of control (dose: 6.25 mg/kg/injection, schedule: Q01DX009 (ip), vehicle: Klucel (hydroxypropylcellulose) (HPC)).

For the molecule `CC(C)CN=C(N)Nc1cccc(NC(=O)Nc2ccc(Cl)cc2)c1`, the T/C runs as follows: (dose: 12.5 mg/kg/injection, schedule: Q01DX009 (ip), vehicle: saline with Tween-80) 92 % of control; under setting [16], 86 % of control; under setting [1], 109 % of control and 91 % of control.
